ChEMBL document CHEMBL4325924, “Discovery of Orally Bioavailable and Liver-Targeted Hypoxia-Inducible Factor Prolyl Hydroxylase (HIF-PHD) Inhibitors for the Treatment of Anemia” (ACS Med Chem Lett, 2018)

What was measured:
[1] = Plasma clearance in Beagle dog at 0.175 mg/kg, iv or 1 mg/kg, po administered via gavage by LC-MS/MS analysis; format: ADME, organism-based, Canis lupus familiaris
[2] = Plasma clearance in Wistar Han rat at 1 mg/kg, iv or 2 mg/kg, po administered via gavage by LC-MS/MS analysis; format: ADME, organism-based
[3] = Half life in Wistar Han rat at 1 mg/kg, iv or 2 mg/kg, po administered via gavage by LC-MS/MS analysis; format: ADME, organism-based; conditions: in vivo
[4] = Oral bioavailability in Wistar Han rat at 2 mg/kg administered via gavage by LC-MS/MS analysis; format: ADME, organism-based; conditions: in vivo
[5] = Volume of distribution in Wistar Han rat at 1 mg/kg, iv or 2 mg/kg, po administered via gavage by LC-MS/MS analysis; format: ADME, organism-based; conditions: in vivo
[6] = Oral bioavailability in Beagle dog at 1 mg/kg administered via gavage by LC-MS/MS analysis; format: ADME, organism-based, Canis lupus familiaris; conditions: in vivo
[7] = Half life in Beagle dog at 0.175 mg/kg, iv or 1 mg/kg, po administered via gavage by LC-MS/MS analysis; format: ADME, organism-based, Canis lupus familiaris; conditions: in vivo
[8] = Volume of distribution in Beagle dog at 0.175 mg/kg, iv or 1 mg/kg, po administered via gavage by LC-MS/MS analysis; format: ADME, organism-based, Canis lupus familiaris; conditions: in vivo

O=C(O)CNC(=O)c1c(O)c2c(n(Cc3ccc(C(F)(F)F)cc3)c1=O)COC2
clearance [1]: 17 mL/min/kg
clearance [2]: 11 mL/min/kg
half-life [3]: 7.3 h
bioavailability [4]: 39%
Vd [5]: 3.1 L/kg
bioavailability [6]: 25%
half-life [7]: 6.2 h
Vd [8]: 5.6 L/kg
